Columns and labels:
[1] = test system: disease-free, high risk breast cancer patients; assay: Phase II trial: toxicity; assay type: in vivo, human; details: six monthly inoculations
Description: (§1) Disease-free, high risk breast cancer patients who have completed standard adjuvant therapy were enrolled at multiple sites and randomized to receive six monthly inoculations of either 500 mcg of GP2 with 125 mcg of GM-CSF (Peptide group; PG) or 125 mcg of GM-CSF alone (adjuvant group; AG). Toxicity was assessed after each inoculation. Immunologic response was monitored by measured delayed type hypersensitivity reactions (DTH) and an HLA-A2:Immunoglobulin dimer assay to detect GP2-specific CD8^+ T-lymphocytes. Patients were monitored clinically, radiographically, and pathologically for recurrence.

[2] = test system: disease-free, high risk breast cancer patients; assay: Phase II trial: DTH reaction to GP2; assay type: in vivo, human
Description: as §1

[3] = test system: GP2-specific CD8+ T-lymphocytes; assay: Phase II trial: HLA-A2:Immunoglobulin dimer assay, GP2-specific CD8+ T-lymphocytes; assay type: in vivo, human
Description: as §1

[4] = test system: disease-free, high risk breast cancer patients; assay: Phase II trial: breast cancer recurrence; assay type: in vivo, human; details: median follow up of 17.9 months, preliminary data
Description: as §1

HLA-A2 molecule = details: cited from earlier work

## GM-CSF: granulocyte macrophage-colony stimulating factor, 125 mcg alone, control adjuvant group of phase II trial
[1]
  grade 3-5 systemic toxicities: no grade 3-5 systemic toxicities
  grade 4-5 local toxicities: no grade 4-5 local toxicities
[2]; post-vaccination
  patients with significant immunity (SI) by DTH (reaction larger than 1 cm): 45.5%
[2]; post-vaccination (after completion of primary series)
  Median DTH reaction to GP2: 0.5±3.3 cm
[2]; pre-vaccination
  Median DTH reaction to GP2: 0.0±1.0 cm
[3]; 6 months after completion of the primary series
  % GP2-specific CD8+ lymphocytes: 1.41±0.49%
[3]; baseline
  % GP2-specific CD8+ lymphocytes: 1.08±0.16%
[4]
  recurrence rate: 13%

## IISAVVGIL (listed as Homo sapiens) [GP2, nine amino acid peptide from the transmembrane portion of HER2/neu, amino acids 654-662]
HLA-A2 molecule
  binding affinity for the HLA-A2 molecule: relatively poor binding affinity

Reference: patent US9737596B2, “Vaccine for the prevention of breast cancer recurrence” (The Henry M. Jackson Foundation for the Advancement of …, priority 2008, dated 2017)
